From US9855268B2, “Triazolo[4,5-d]pyrimidine derivatives” (Merck Patent GmbH, priority 2013, dated 2018)

Assays:
[1] = biological target: T1, GCN2 (Homo sapiens, UniProt Q9P2K8); test: GCN2 enzyme assay (TR-FRET Lanthascreen, GFP-eIF2alpha phosphorylation); format: biochemical; conditions: 10 μM ATP, 80 nM GFP-eIF2a, 30 nM GCN2
How it was run: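 Kinase reaction with 10 μM ATP and 80 nM GFP-labelled eIF2alpha substrate at room temperature, stopped with EDTA. Phospho-eIF2alpha detected by TR-FRET between antibody and GFP-substrate, excitation at 340 nm.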
Target sequence in this assay (Q9P2K8 whole entry, species assumed): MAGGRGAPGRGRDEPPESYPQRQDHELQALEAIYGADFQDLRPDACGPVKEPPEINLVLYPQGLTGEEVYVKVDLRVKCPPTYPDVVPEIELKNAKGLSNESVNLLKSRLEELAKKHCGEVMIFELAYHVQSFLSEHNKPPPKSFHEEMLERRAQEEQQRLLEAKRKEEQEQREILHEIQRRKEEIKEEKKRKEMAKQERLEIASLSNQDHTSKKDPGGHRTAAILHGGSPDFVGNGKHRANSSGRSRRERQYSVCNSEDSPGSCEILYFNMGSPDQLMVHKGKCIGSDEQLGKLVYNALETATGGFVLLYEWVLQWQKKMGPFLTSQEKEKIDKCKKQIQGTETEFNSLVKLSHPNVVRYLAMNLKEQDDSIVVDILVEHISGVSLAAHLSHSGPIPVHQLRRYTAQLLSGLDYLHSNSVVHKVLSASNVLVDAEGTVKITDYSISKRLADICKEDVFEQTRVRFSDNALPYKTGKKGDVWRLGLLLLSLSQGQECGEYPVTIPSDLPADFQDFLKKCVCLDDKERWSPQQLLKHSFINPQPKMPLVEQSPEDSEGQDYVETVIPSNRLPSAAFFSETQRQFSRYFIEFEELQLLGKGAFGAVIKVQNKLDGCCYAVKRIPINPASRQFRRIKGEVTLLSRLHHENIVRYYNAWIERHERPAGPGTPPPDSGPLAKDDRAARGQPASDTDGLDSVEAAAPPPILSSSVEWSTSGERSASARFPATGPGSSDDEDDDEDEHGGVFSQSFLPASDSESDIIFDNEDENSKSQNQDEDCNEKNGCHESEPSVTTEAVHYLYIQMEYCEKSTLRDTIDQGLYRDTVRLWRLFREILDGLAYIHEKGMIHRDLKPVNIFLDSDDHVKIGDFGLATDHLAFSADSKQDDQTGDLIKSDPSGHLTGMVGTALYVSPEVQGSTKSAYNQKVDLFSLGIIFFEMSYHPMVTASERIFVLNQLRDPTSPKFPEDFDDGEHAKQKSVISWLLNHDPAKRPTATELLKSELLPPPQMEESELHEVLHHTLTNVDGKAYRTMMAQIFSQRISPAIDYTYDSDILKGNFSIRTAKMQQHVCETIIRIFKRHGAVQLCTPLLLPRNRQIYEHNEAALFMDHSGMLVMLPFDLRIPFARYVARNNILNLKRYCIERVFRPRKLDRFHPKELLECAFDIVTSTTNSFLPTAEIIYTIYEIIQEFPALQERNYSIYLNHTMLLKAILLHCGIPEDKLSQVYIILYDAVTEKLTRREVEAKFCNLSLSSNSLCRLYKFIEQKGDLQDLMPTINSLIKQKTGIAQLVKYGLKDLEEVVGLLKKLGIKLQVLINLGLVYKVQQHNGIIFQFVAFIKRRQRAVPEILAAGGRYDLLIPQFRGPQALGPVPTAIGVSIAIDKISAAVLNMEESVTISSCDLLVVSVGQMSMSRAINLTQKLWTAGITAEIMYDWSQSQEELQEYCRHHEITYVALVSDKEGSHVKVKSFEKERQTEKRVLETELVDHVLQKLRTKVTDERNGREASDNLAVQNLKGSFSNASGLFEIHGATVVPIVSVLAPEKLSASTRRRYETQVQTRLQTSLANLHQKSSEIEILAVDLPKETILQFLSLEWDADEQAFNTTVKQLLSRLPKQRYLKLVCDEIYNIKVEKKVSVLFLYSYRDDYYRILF

[2] = biological target: GSK3β(h) (Homo sapiens, UniProt P49841); test: GSK3β radiometric kinase assay (33P-ATP, phospho GS2 peptide); format: biochemical; conditions: read-out: IC50 GSK3β (enzyme assay)
GSK3β(h), sequence (P49841 whole entry): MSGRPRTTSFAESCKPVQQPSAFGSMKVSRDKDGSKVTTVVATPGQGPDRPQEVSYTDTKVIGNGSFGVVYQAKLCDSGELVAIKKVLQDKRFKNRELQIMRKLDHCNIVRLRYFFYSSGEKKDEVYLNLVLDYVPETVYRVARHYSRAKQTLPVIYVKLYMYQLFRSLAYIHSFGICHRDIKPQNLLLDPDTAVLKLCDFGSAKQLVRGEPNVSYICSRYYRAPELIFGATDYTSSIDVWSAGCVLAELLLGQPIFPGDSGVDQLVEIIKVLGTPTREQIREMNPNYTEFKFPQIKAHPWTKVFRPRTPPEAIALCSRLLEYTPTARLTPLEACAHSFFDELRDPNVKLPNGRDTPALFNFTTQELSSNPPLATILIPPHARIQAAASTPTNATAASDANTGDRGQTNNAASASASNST
How it was run: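 Human GSK3β in 8 mM MOPS pH 7,0, 0,2 mM EDTA, 10 mM Mg-acetate with 20 μM phospho-GS2 peptide; the reaction was started with [γ-33P]MgATP at an unstated level. After 40 min at room temperature it was stopped with phosphoric acid, and the peptide was captured on P30 filtermat for scintillation counting.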

[3] = biological target: T1, GCN2; test: Cellular assay of GCN2 activity (phospho-eIF2alpha immunocytochemistry after tryptophanol); format: cell-based; design: endogenous in cells; host or cells: U2OS; conditions: Human U2OS cells, 2 h compound, 600 μM tryptophanol 30 min
How it was run: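 Readout in human U2OS cells: compound pretreatment 2 h, then tryptophanol (600 μM final) for 30 min to trigger GCN2 signalling. Fixed, permeabilised cells quantified by immunocytochemistry for phosphorylation, normalised to DMSO controls as % effect; IC50 from concentration-response.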
Target sequence in this assay (Q9P2K8 whole entry): as the sequence (Q9P2K8 whole entry, species assumed) above

[4] = biological target: GSK3α(h) (Homo sapiens, UniProt P49840); test: GSK3α radiometric kinase assay (33P-ATP, phospho GS2 peptide); format: biochemical; conditions: read-out: IC50 GSK3α (enzyme assay)
GSK3α(h), sequence (P49840 whole entry): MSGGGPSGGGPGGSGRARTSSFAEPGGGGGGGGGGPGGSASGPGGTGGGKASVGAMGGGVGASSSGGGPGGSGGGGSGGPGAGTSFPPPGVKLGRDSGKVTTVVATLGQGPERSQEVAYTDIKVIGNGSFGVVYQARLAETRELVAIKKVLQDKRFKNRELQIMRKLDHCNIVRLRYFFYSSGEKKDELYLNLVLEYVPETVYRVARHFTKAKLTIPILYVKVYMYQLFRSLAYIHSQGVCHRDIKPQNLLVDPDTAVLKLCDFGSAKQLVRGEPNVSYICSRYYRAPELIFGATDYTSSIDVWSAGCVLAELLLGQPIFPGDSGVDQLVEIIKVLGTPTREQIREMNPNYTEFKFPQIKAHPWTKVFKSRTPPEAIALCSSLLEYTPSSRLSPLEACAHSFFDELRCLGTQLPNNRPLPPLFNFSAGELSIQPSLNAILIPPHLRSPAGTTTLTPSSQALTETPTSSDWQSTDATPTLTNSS
How it was run: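 Human GSK3α incubated with 20 μM phospho-GS2 peptide in 8 mM MOPS pH 7,0, 10 mM Mg-acetate and [γ-33P]ATP (concentration as required), started with MgATP. After 40 minutes at room temperature, stopped with phosphoric acid; 33P incorporation measured by filtermat spotting and scintillation counting.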

Row | IC50 [1] [nM] | IC50 [2] [nM] | IC50 [3] [nM] | IC50 [4] [nM] | Structure (SMILES)
1 | < 1000 | < 1000 | 1000 to 5000 | < 1000 | COCCNC(=O)[C@@H]1CC[C@@H](Nc2ncc3nnn(-c4ccc5nc(C)ccc5c4)c3n2)C1 [A246, (1R,3R)-3-[3-(2-methyl-quinolin-6-yl)-3H-[1,2,3]triazolo[4,5-d]pyrimidin-5-ylamino]-cyclopentanecarboxylic acid (2-methoxy-ethyl)-amide]
2 | < 1000 | < 1000 | < 1000 | < 1000 | CCOc1ccc(-n2nnc3cnc(N[C@@H]4CC[C@@H](C(=O)NCCO)C4)nc32)cc1 [A247, (1R,3R)-3-[3-(4-ethoxy-phenyl)-3H-[1,2,3]triazolo[4,5-d]pyrimidin-5-ylamino]-cyclopentanecarboxylic acid (2-hydroxy-ethyl)-amide]
3 | < 1000 | < 1000 | 1000 to 5000 | < 1000 | CCOc1ccc(-n2nnc3cnc(N[C@@H]4CC[C@@H](C(=O)NCCOC)C4)nc32)cc1 [A248, (1R,3R)-3-[3-(4-ethoxy-phenyl)-3H-[1,2,3]triazolo[4,5-d]pyrimidin-5-ylamino]-cyclopentanecarboxylic acid (2-methoxy-ethyl)-amide]
4 | < 1000 | < 1000 | 1000 to 5000 | < 1000 | CCOc1ccc(-n2nnc3cnc(N[C@@H]4CC[C@@H](C(=O)NCC5CCN(C)CC5)C4)nc32)cc1 [A249, (1R,3R)-3-[3-(4-ethoxy-phenyl)-3H-[1,2,3]triazolo[4,5-d]pyrimidin-5-ylamino]-cycloentanecarboxyic acid (1-methyl-piperidin-4-ylmethyl)-amide]
5 | < 1000 | < 1000 | 1000 to 5000 | < 1000 | Cc1ccc2cc(-n3nnc4cnc(N[C@@H]5CC[C@@H](C(=O)NCCN6CCN(C)CC6)C5)nc43)ccc2n1 [A250, (1R,3R)-3-[3-(2-methyl-quinolin-6-yl)-3H-[1,2,3]triazolo[4,5-d]pyrimidin-5-ylamino]-cyclopentanecarboxylic acid [2-(4-methyl-piperazin-1-yl)-ethyl]-amide]
6 | < 1000 | < 1000 | 1000 to 5000 | < 1000 | Cc1ccc2cc(-n3nnc4cnc(N[C@@H]5CC[C@@H](C(=O)NCC6CCN(C)CC6)C5)nc43)ccc2n1 [A252, (1R,3R)-3-[3-(2-methyl-quinolin-6-yl)-3H-[1,2,3]triazolo[4,5-d]pyrimidin-5-ylamino]-cyclopentanecarboxylic acid (1-methyl-piperidin-4-ylmethyl)-amide]
7 | < 1000 | < 1000 | 1000 to 5000 | < 1000 | OCCn1cc(-c2ccc(-n3nnc4cnc(N[C@@H]5CC[C@@H](O)C5)nc43)cc2)cn1 [A259, (1R,3R)-3-(3-{4-[1-(2-hydroxy-ethyl)-1H-pyrazol-4-yl]-phenyl}-3H-[1,2,3]triazolo[4,5-d]pyrimidin-5-ylamino)-cyclopentanol]
8 | < 1000 | < 1000 | 5000 to 10000 | < 1000 | NC(=O)[C@@H]1CC[C@@H](Nc2ncc3nnn(-c4ccc(-c5cnn(CCO)c5)c(F)c4)c3n2)C1 [A260, (1R,3R)-3-(3-{3-fluoro-4-[1-(2-hydroxy-ethyl)-1H-pyrazol-4-yl]-phenyl}-3H-[1,2,3]triazolo[4,5-d]pyrimidin-5-ylamino)-cyclopentanecarboxylic acid amide]
9 | < 1000 | < 1000 | 5000 to 10000 | < 1000 | COc1ccc(-n2nnc3cnc(N[C@@H]4C=C[C@@H](C(N)=O)C4)nc32)cc1 [A273, (1S,4S)-4-[3-(4-Methoxy-phenyl)-3H-[1,2,3]triazolo[4,5-d]pyrimidin-5-ylamino]-cyclopent-2-enecarboxylic acid amide]
10 | < 1000 | < 1000 | 1000 to 5000 | < 1000 | COCCOc1ccc(-n2nnc3cnc(N[C@@H]4CC[C@@H](C#N)C4)nc32)cc1 [A274, (1R,3R)-3-{3-[4-(2-methoxy-ethoxy)-phenyl]-3H-[1,2,3]triazolo[4,5-d]pyrimidin-5-ylamino}-cyclopentanecarbonitrile]
11 | < 1000 | < 1000 | 5000 to 10000 | < 1000 | NC(=O)[C@@H]1CC[C@@H](Nc2ncc3nnn(-c4ccc(OCCN5CCOCC5)cc4)c3n2)C1 [A277, (1R,3R)-3-{3-[4-(2-morpholin-4-yl-ethoxy)-phenyl]-3H-[1,2,3]triazolo[4,5-d]pyrimidin-5-ylamino}-cyclopentanecarboxylic acid amide]
12 | < 1000 | < 1000 | 1000 to 5000 | < 1000 | CC(C)(CCO)Oc1ccc(-n2nnc3cnc(N[C@@H]4CC[C@@H](C(N)=O)C4)nc32)cc1 [A278, (1R,3R)-3-{3-[4-(3-hydroxy-1,1-dimethyl-propoxy)-phenyl]-3H-[1,2,3]triazolo[4,5-d]pyrimidin-5-ylamino}-cyclopentanecarboxylic acid amide]
13 | < 1000 | < 1000 | 1000 to 5000 | < 1000 | CCOc1ccc(-n2nnc3cnc(N[C@@H]4CC[C@@H](C(=O)NNC(C)=O)C4)nc32)cc1 [A280, (1R,3R)-3-[3-(4-ethoxy-phenyl)-3H-[1,2,3]triazolo[4,5-d]pyrimidin-5-ylamino]-cyclopentanecarboxylic acid N′-acetyl-hydrazide]
14 | < 1000 | < 1000 | 1000 to 5000 | < 1000 | CCOc1ccc(-n2nnc3cnc(N[C@@H]4CC[C@@H](C(=O)NN)C4)nc32)cc1 [A282, (1R,3R)-3-[3-(4-ethoxy-phenyl)-3H-[1,2,3]triazolo[4,5-d]pyrimidin-5-ylamino]-cyclopentanecarboxylic acid hydrazide]
